Laboratory results published in patent publication US20110294842A9, “SPIRO (FURO [3, 2-C] PYRIDINE-3-3' -INDOL) -2' (1'H)-ONE DERIVATIVES AND RELATED COMPOUNDS FOR THE TREATMENT OF SODIUM-CHANNEL MEDIATED DISEASES, SUCH AS PAIN” (Xenon Pharmaceuticals Inc., priority 2006, published 2011).

What was measured:
sodium channel = experiment: Guanidine influx assay (in vitro); type: cell-based, human or rat; details: known cell line that expresses a sodium channel; read-out: IC50 Activity Level
Text: This example describes an in vitro assay for testing and profiling test agents against human or rat sodium channels stably expressed in cells of either an endogenous or recombinant origin. The assay is also useful for determining the IC-50 of a sodium channel blocking compound. The assay is based on the guanidine flux assay described by Reddy, N. L., et al., J Med Chem (1998), 41(17):3298-302.
The guanidine influx assay is a radiotracer flux assay used to determine ion flux activity of sodium channels in a high-throughput microplate-based format. The assay uses ^14C-guanidine hydrochloride in combination with various known sodium channel modulators, to assay the potency of test agents. Potency is determined by an IC-50 calculation. Selectivity is determined by comparing potency of the compound for the channel of interest to its potency against other sodium channels (also called ‘selectivity profiling’).
Each of the test agents is assayed against cells that express the channels of interest. Voltage gated sodium channels are either TTX sensitive or insensitive. This property is useful when evaluating the activities of a channel of interest when it resides in a mixed population with other sodium channels. The following Table 1 summarizes cell lines useful in screening for a certain channel activity in the presence or absence of TTX.
Cells expressing the channel of interest are grown according to the supplier or in the case of a recombinant cell in the presence of selective growth media such as G418 (Gibco/Invitrogen). The cells are disassociated from the culture dishes with an enzymatic solution (1×) Trypsin/EDTA (Gibco/Invitrogen) and analyzed for density and viability using haemocytometer (Neubauer). Disassociated cells are washed and resuspended in their culture media then plated into Scintiplates (Beckman Coulter Inc.) (approximately 100,000 cells/well) and incubated at 37° C./5% CO2 for 20-24 hours. After an extensive wash with Low sodium HEPES-buffered saline solution (LNHBSS) (150 mM Choline Chloride, […] (Sigma), 1 mM Calcium Chloride, 5 mM Potassium Chloride, 1 mM Magnesium Chloride, 10 mM Glucose) agents diluted with LNHBSS are added to each well. (Varying concentrations of test agent may be used). The activation/radiolabel mixture contains aconitine (Sigma), and ^14C-guanidine hydrochloride (ARC).
After loading the cells with test agent and activation/radiolabel mixture, the Scintiplates are incubated at ambient temperature. Following the incubation, the Scintplates are extensively washed with LNHBSS supplemented with guanidine (Sigma). The Scintiplates are dried and then counted using a Wallac MicroBeta TriLux (Perkin-Elmer Life Sciences). The ability of the test agent to block sodium channel activity is determined by comparing the amount of ^14C-guanidine present inside the cells expressing the different sodium channels.
IC-50 value of a test agent for a specific sodium channel may be determined using the above general method. IC-50 may be determined using a 3, 8, 10, 12 or 16 point curve in duplicate or triplicate with a starting concentration of 1, 5 or 10 μM diluted serially with a final concentration reaching the sub-nanomolar, nanomolar and low micromolar ranges. Typically the mid-point concentration of test agent is set at 1 μM, and sequential concentrations of half dilutions greater or smaller are applied (e.g. 0.5 μM; 5 μM and 0.25 μM; 10 μM and 0.125 μM; 20 μM etc.). The IC-50 curve is calculated using the 4 Parameter Logistic Model or Sigmoidal Dose-Response Model formula (fit=(A+((B−A)/(1+((C/×)̂ D)))).
The Synthetic Example numbers provided in Table 2 correspond to the Synthetic Examples herein: […]

CHO-K1 (Nav1.4) = type: cell-based, Chinese Hamster
L6 (Nav1.4 and 1.5) = type: cell-based, rat
SK-N-BE2C (NaV1.8) = SK-N-BE2C (NaV1.8) (Homo sapiens, UniProt Q9Y5Y9); type: cell-based
PC12 (Nav1.2) = PC12 (Nav1.2) (Rattus norvegicus, UniProt P04775)
Chain of PC12 (Nav1.2) (P04775 whole entry, looked up): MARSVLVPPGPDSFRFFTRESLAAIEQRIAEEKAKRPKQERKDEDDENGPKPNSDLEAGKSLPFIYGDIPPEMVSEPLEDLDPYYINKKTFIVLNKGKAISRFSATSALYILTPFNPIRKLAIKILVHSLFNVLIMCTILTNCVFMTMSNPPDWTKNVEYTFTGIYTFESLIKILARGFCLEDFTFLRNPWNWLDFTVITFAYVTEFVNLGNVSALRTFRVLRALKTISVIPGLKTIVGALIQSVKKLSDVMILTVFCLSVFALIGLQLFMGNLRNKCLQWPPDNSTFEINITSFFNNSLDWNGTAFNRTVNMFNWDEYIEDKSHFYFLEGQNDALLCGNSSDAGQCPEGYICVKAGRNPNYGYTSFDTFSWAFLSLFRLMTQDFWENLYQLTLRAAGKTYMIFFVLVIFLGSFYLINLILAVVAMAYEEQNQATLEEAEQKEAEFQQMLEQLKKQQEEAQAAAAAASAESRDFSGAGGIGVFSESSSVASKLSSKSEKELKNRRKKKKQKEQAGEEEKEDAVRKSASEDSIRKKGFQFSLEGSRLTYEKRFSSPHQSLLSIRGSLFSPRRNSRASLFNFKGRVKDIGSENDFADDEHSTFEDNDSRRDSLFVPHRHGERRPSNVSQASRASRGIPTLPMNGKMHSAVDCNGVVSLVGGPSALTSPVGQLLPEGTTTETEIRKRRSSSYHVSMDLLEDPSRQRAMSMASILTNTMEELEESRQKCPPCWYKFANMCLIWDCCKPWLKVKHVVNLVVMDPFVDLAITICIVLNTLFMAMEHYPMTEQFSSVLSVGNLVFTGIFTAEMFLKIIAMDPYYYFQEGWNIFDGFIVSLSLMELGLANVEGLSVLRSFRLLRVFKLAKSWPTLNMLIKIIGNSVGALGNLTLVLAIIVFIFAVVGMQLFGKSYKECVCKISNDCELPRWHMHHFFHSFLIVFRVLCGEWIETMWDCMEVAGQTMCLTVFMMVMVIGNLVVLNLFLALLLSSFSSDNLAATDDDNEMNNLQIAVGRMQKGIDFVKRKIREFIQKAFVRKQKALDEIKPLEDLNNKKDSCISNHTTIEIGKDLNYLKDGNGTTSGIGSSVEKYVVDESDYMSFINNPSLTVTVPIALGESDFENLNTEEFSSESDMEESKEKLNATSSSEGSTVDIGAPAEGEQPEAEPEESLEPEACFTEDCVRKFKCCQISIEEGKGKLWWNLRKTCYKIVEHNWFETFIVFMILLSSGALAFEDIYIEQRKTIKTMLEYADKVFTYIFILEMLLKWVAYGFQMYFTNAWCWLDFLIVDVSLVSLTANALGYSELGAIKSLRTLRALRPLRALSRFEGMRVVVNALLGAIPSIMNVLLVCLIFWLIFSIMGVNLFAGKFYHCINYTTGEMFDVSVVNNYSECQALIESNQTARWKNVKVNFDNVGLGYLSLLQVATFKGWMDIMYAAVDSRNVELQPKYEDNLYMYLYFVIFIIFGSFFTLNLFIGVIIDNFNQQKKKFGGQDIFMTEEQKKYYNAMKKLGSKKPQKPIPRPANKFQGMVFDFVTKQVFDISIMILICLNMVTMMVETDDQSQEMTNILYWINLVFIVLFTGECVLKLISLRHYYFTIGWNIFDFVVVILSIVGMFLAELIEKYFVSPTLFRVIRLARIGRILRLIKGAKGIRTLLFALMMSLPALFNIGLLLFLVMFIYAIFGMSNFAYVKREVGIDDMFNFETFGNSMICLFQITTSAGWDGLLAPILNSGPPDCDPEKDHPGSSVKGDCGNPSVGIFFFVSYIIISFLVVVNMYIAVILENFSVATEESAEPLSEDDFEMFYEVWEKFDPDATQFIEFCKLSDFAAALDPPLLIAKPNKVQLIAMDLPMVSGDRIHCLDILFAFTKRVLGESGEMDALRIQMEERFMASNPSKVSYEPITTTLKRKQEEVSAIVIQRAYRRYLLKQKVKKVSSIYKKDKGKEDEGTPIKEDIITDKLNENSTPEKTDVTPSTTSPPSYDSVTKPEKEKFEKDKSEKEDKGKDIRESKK

Chain of SK-N-BE2C (NaV1.8) (Q9Y5Y9 whole entry, looked up): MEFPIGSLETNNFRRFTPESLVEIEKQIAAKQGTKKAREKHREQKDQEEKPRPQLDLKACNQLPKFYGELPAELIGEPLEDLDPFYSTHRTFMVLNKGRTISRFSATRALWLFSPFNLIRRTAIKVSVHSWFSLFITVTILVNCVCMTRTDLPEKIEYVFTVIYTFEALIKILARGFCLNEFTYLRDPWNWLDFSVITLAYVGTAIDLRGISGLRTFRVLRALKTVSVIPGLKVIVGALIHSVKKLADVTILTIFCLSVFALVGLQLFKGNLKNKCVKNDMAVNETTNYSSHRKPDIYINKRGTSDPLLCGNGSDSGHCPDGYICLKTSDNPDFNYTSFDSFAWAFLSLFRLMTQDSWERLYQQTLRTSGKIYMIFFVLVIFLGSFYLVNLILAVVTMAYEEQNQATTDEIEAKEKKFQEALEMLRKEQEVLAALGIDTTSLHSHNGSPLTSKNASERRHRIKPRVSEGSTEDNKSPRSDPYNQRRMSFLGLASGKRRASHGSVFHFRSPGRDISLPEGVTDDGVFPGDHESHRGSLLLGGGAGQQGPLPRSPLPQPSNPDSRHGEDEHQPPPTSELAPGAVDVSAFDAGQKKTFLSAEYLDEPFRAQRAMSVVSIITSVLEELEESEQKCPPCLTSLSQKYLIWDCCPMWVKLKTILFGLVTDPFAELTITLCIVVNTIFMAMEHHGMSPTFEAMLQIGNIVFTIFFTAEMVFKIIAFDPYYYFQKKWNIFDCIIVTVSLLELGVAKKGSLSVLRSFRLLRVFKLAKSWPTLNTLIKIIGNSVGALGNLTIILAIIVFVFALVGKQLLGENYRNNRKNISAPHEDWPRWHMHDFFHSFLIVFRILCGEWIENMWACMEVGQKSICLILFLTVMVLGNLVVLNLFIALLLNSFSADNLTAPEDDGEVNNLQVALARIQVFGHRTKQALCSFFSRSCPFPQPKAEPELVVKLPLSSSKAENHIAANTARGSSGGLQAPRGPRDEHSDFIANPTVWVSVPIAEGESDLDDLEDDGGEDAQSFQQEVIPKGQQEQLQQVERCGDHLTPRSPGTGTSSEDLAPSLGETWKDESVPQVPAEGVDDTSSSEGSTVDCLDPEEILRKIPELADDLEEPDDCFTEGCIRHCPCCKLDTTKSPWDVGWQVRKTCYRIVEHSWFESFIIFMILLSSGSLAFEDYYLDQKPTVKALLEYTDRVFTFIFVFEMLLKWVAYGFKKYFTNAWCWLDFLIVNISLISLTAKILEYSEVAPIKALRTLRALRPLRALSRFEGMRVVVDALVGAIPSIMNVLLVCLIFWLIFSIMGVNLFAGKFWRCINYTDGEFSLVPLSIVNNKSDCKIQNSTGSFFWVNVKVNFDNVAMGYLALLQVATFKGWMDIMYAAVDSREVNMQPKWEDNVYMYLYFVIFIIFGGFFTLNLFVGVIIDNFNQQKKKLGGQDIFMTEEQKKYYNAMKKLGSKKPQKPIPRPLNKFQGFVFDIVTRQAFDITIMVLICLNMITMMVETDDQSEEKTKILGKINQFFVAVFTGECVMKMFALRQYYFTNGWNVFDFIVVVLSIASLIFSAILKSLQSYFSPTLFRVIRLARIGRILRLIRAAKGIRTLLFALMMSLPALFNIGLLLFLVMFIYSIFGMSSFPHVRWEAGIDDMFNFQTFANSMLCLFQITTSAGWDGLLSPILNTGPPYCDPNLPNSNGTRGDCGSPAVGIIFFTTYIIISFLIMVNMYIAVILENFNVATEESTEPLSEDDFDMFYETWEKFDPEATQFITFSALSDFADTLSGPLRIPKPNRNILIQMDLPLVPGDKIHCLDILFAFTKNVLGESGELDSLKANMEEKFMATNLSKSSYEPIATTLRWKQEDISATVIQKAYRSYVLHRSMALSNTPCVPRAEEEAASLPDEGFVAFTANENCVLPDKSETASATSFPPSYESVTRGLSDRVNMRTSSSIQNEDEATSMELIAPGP

SMILES	IC50 (sodium channel) [nM]	melting point [°C]	also measured
COc1cc2c(cn1)OCC21C(=O)N(C(c2ccccc2)c2ccccc2)c2ccccc21 (stereo not shown) [Example 24]	≥ 1000	–	–
O=C1N(Cc2ccc(C(F)(F)F)o2)c2ccccc2C12COc1cc3c(nc12)OCO3 (stereo not shown) [Example 8]	1 to 10	–	–
COc1cc2c(cn1)OCC21C(=O)N(Cc2ccc(C(F)(F)F)o2)c2ccccc21 (stereo not shown) [Example 23]	1 to 10	–	–
COc1ccc2c(n1)C1(CO2)C(=O)Nc2cccc(Br)c21 (stereo not shown) [Synthetic Example 12, 4′-bromo-5-methoxyspiro[furo[3,2-b]pyridine-3,3′-indol]-2′(1′H)-one]	–	265 to 268	–
COc1cc2c(cn1)OCC21C(=O)N(CC2CCOCC2)c2ccccc21 (stereo not shown) [Synthetic Example 26, 5-methoxy-1′-(tetrahydro-2H-pyran-4-ylmethyl)spiro[furo[2,3-c]pyridine-3,3′-indol]-2′(1′H)-one]	–	84 to 85	–
COc1ccc2c(n1)C1(CO2)C(=O)N(Cc2ccc(C(F)(F)F)o2)c2ccccc21 (stereo not shown) [Synthetic Example 5, 5-methoxy-1′-{[5-(trifluoromethyl)-2-furyl]methyl}spiro[furo[3,2-b]pyridine-3,3′-indol]-2′(1′H)-one]	–	145 to 147	–
COc1ccc2c(n1)C1(CO2)C(=O)Nc2cccc(Br)c21 (stereo not shown) [Example 12]	100 to 1000	–	–
CCCCCN1C(=O)C2(COc3ccncc32)c2ccccc21 (stereo not shown) [Example 1]	100 to 1000	–	–
COc1cc2c(cn1)OCC21C(=O)N(CC2CCOCC2)c2ccccc21 (stereo not shown) [Example 26]	100 to 1000	–	–
COc1ccc2c(n1)C1(CO2)C(=O)N(Cc2ncc(Cl)n2C)c2ccccc21 (stereo not shown) [Example 19]	100 to 1000	169 to 171	–
COc1ccc2c(n1)C1(CO2)C(=O)Nc2ccccc21 (stereo not shown) [Example 13]	≥ 1000	199 to 200	–
COc1ccc2c(n1)C1(CO2)C(=O)N(Cc2ccc(Cl)s2)c2ccccc21 (stereo not shown) [Example 15]	10 to 100	–	–
COc1ccc2c(n1)C1(CO2)C(=O)N(Cc2csc(C(C)C)n2)c2ccccc21 (stereo not shown) [Example 16]	10 to 100	136 to 138	–
O=C1N(Cc2ccc(C(F)(F)F)o2)c2ccccc2C12COc1cc3c(nc12)OCO3 (stereo not shown) [Synthetic Example 8, 1′-{[5-(trifluoromethyl)-2-furyl]methyl}spiro[1,3-dioxolo[4,5-b]furo[2,3-e]pyridine-5,3′-indol]-2′(1′H)-one]	–	175 to 177	–
COc1ccc2c(n1)C1(CO2)C(=O)N(Cc2ccc(C(F)(F)F)o2)c2ccc(F)cc21 (stereo not shown) [Example 10]	≥ 1000	–	–
CCCCCN1C(=O)C2(COc3ccncc32)c2ccccc21 (stereo not shown) [Example 2]	≥ 1000	–	–
COc1ccc2c(n1)C1(CO2)C(=O)N(Cc2ccc(C(F)(F)F)o2)c2cccc(Br)c21 (stereo not shown) [Example 4]	10 to 100	–	–
CCCCCN1C(=O)C2(COc3cc[nH]c(=O)c32)c2ccccc21 (stereo not shown) [Example 3]	≥ 1000	–	–
NC1=N[C@H](O)[C@H]2[C@H]3O[C@]4(O)O[C@@H]([C@@H](O)[C@@]2(N1)[C@@H]4O)[C@]3(O)CO [TTX, tetrodotoxin]	–	–	block of [14C] guanidine influx (CHO-K1 (Nav1.4)): Guanidine influx was completely; block of [14C] guanidine influx (L6 (Nav1.4 and 1.5)): partially blocked by TTX (Nav1.5; block of [14C] guanidine influx (SK-N-BE2C (NaV1.8)): TTX partially blocked influx; block of [14C] guanidine influx (PC12 (Nav1.2)): Guanidine influx was completely
COc1cc2c(cn1)OCC21C(=O)N(C[C@H]2CCCO2)c2ccccc21 (stereo partly shown) [Example 28]	10 to 100	–	–
COc1cc2c(cn1)OCC21C(=O)Nc2ccccc21 (stereo not shown) [Synthetic Example 25, 5-methoxyspiro[furo[2,3-c]pyridine-3,3′-indol]-2′(1′H)-one]	–	231 to 232	–
COc1ccc2c(n1)C1(CO2)C(=O)N(Cc2ccc(C(F)(F)F)o2)c2ccccc21 (stereo not shown) [Example 5]	100 to 1000	–	–
O=C1N(Cc2ccc(C(F)(F)F)o2)c2ccccc2C12COc1ccc(=O)[nH]c12 (stereo not shown) [Synthetic Example 7, 1′-{[5-(trifluoromethyl)-2-furyl]methyl}spiro[furo[3,2-b]pyridine-3,3′-indole]-2′,5(1′H,4H)-dione]	–	175 to 177	–
COc1ccc2c(n1)C1(CO2)C(=O)N(CC(=O)Nc2ccccc2F)c2ccccc21 (stereo not shown) [Example 18]	100 to 1000	–	–
COc1ccc2c(n1)C1(CO2)C(=O)N(CC2CCN(C)CC2)c2ccccc21 (stereo not shown) [Example 22]	≥ 1000	58 to 62	–
COc1ccc2c(n1)C1(CO2)C(=O)N(Cc2ccccn2)c2ccccc21 (stereo not shown) [Example 17]	100 to 1000	–	–
COc1ccc2c(n1)C1(CO2)C(=O)N(Cc2ccc(C(F)(F)F)o2)c2cccc(Cl)c21 (stereo not shown) [Example 11]	100 to 1000	–	–
COc1ccc2c(n1)C1(CO2)C(=O)N(Cc2ccc(C(F)(F)F)o2)c2ccc(F)cc21 (stereo not shown) [Synthetic Example 10, 5′-fluoro-5-methoxy-1′-{[5-(trifluoromethyl)-2-furyl]methyl}spiro[furo[3,2-b]pyridine-3,3′-indol]-2′(1′H)-one]	–	158 to 160	–
COc1cc2c(cn1)OCC21C(=O)N(C[C@@H]2CCCO2)c2ccccc21 (stereo partly shown) [Example 27]	10 to 100	–	–
COc1cc2c(cn1)OCC21C(=O)Nc2ccccc21 (stereo not shown) [Example 25]	100 to 1000	–	–
